We go through 14 compounds from US9657015B2, “Substituted bicyclic dihydropyrimidinones and their use as inhibitors of neutrophil elastase activity” (Boehringer Ingelheim International GmbH, priority 2014, dated 2017).

A short description of data set [1]: Metabolic stability with human liver microsomes. It counts as in vitro ADME. The settings on record: pH 7.6; pooled human liver microsomes, 37° C., 1 μM test compound, 1 mg/ml microsomal protein, NADPH; read-out: t1/2 INVITRO. For orientation: Liver microsomes are a subcellular fraction often used to study metabolism.
Data set [2] in a line: Drug transport across human Caco-2 cells. It counts as in vitro ADME. The following applies: human, Caco-2 monolayers, pH 7.2, 37° C.; for Papp A→B at 10 µM: apical-to-basal, read-out: PEAB; for Papp B→A at 10 µM: basal-to-apical, read-out: PEBA. From the text: Assay for Determination of Drug Transport Across Human Caco-2 Cells
The assay provides information on the potential of a compound to pass the cell membrane, on the extent of oral absorption as well as on whether the compound is actively transported by uptake and/or efflux transporters. For the measurement of permeability across polarized, confluent human cancer colon carcinoma cells 2 (Caco-2) cell monolayers grown on permeable filter supports are used as the in vitro absorption model.
Apparent permeability coefficients (PE) of the compounds across the Caco-2 monolayers are measured (pH 7.2, 37° C.) in apical-to-basal (AB) (absorptive) and basal-to-apical (BA) (secretory) transport direction. AB permeability (PEAB) represents drug absorption from the intestine into the blood and BA permeability (PEBA) drug secretion from the blood back into the intestine via both passive permeability as well as active transport mechanisms mediated by efflux and uptake transporters that are expressed on the Caco-2 cells. The compounds are assigned to permeability/absorption classes by comparison of the AB permeabilities with the AB permeabilities of reference compounds with known in vitro permeability and oral absorption in the human. Identical or similar permeabilities in both transport directions indicate passive permeation, vectorial permeability points to additional active transport mechanisms. […] Active transport is concentration-dependently saturable.
Caco-2 cells (1-2*10^5 cells/cm^2 area) are seeded on filter inserts (Costar transwell polycarbonate or PET filters, 0.4 μm pore size) and cultured (DMEM) for 10 to 25 days. Compounds are dissolved in appropriate solvent (like DMSO, 1-20 mM stock solutions). Stock solutions are diluted with HTP-4 buffer (128.13 mM NaCl, 5.36 mM KCl, 1 mM MgSO4, 1.8 mM CaCl2, 4.17 mM NaHCO3, 1.19 mM Na2HPO4×7H2O, 0.41 mM NaH2PO4×H2O, 15 mM HEPES, 20 mM glucose, pH 7.2) to prepare the transport solutions (typically 10 μM compound, final DMSO<=0.5%). The transport solution (TL) is applied to the apical or basolateral donor side for measuring A-B or B-A permeability (3 filter replicates), respectively. The receiver side contains HTP-4 buffer supplemented with 2% BSA. Samples are collected at the start and end of experiment from the donor and at various time intervals for up to 2 hours also from the receiver side for concentration measurement by LC-MS/MS or scintillation counting. Sampled receiver volumes are replaced with fresh receiver solution.
The apparent permeability coefficients (PEAB and PEBA) of selected compounds in the Caco-2 drug transport assay described above are listed in Table 9.
In general terms: Caco-2 monolayers are a common model of the intestinal barrier.

Data set [3] has as its target Human neutrophil elastase (Homo sapiens (Human), UniProt P08246). Briefly: Human Neutrophil Elastase Assay. It counts as biochemical. The following applies: substrate MeOSuc-Ala-Ala-Pro-Val-AMC 250 μM, pH 7.5, room temperature.
A short description of data set [4]: Aqueous solubility (High Throughput Method). It counts as physicochemical. The settings on record: McIlvaine buffer pH 6.8 with 2.5% DMSO, aqueous buffer, kinetic from dmso stock; McIlvaine buffer pH 6.8, 2.5% DMSO, 24 h shaking. The method, then:
Assay for Determination of Aqueous Solubility (“High Throughput Method”)
Starting from a 10 mM DMSO stock solution, aliquots are diluted with acetonitrile/water (1/1) and McIlvaine buffer pH 6.8, respectively. After 24 h of shaking, the solutions or suspensions are filtered and analyzed by LC-UV. The amount dissolved in buffer is compared to the amount dissolved in the acetonitrile/water (1/1) solution. Solubility is measured from 0.001 to 0.125 mg/ml at a DMSO concentration of 2.5%. If more than 90% of the compound is dissolved in buffer, the value is marked with “>”.

Data set [5] addresses neutrophil elastase in human plasma (Homo sapiens (Human), UniProt P08246). Description: Neutrophil elastase inhibitory activity in human plasma. It counts as biochemical. The settings on record: human plasma assay (zymosan-stimulated blood plasma), substrate 250 μM, pH 7.5.

Values after ≈ are worked out from the molar mass of the structure shown.

neutrophil elastase in human plasma, sequence (P08246 30-247): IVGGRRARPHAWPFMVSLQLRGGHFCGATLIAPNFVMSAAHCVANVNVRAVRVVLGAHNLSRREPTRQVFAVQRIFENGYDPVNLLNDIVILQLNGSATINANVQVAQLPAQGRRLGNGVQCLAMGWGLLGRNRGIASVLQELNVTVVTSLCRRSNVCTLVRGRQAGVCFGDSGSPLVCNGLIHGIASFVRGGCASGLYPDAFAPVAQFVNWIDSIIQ
Human neutrophil elastase, sequence (P08246 30-247): as above

Consider `CN1CCC2=C(C1=O)[C@@H](c1ccc(C#N)cc1)NC(=O)N2c1cccc(C(F)(F)F)c1` [Example 4A, (R)-4-(6-Methyl-2,5-dioxo-1-(3-(trifluoromethyl)phenyl)-1,2,3,4,5,6,7,8-octahydropyrido[4,3-d]pyrimidin-4-yl)benzonitrile], for which the half-life at 1 μM in data set [1] was more than 2.17 h. Further, in data set [2], the Papp A→B at 10 µM turned out to be 17 ×10⁻⁶ cm/s. The Papp B→A at 10 µM in data set [2] amounted to 34 ×10⁻⁶ cm/s. Besides, the IC50 came out at 1.3 nM in data set [3] and 2.7 nM in data set [5]. Also, the solubility at 24 h in data set [4] was more than 89 µg/mL.

As to `COC(=O)CN1C(=O)N(c2cccc(C(F)(F)F)c2)C2=C(C(=O)NCC2)C1c1ccc(C#N)cc1` (stereo not drawn) [Example 9, Methyl 2-(4-(4-Cyanophenyl)-2,5-dioxo-1-(3-(trifluoromethyl)phenyl)-1,2,5,6,7,8-hexahydropyrido[4,3-d]pyrimidin-3(4H)-yl)acetate], in data set [1], the half-life at 1 μM was more than 2.17 h. In addition, in data set [2], the Papp A→B at 10 µM was found to be 6.1 ×10⁻⁶ cm/s and the Papp B→A at 10 µM was 63 ×10⁻⁶ cm/s. Also, half-maximal inhibition in data set [3] (IC50) required 2.3 nM. Besides, the concentration in solution in data set [4] (solubility at 24 h) was 88 µg/mL (≈ 182 µM). The IC50 in data set [5] came out at 3.1 nM.

With `CN1C(=O)N(c2cccc(C(F)(F)F)c2)C2=C(C(=O)NCC2)[C@H]1c1ccc(C#N)cc1` [Example 6, (R)-4-(3-Methyl-2,5-dioxo-1-(3-(trifluoromethyl)phenyl)-1,2,3,4,5,6,7,8-octahydropyrido[4,3-d]pyrimidin-4-yl)benzonitrile], in data set [1], the half-life at 1 μM was more than 2.17 h. The Papp A→B at 10 µM in data set [2] was 37 ×10⁻⁶ cm/s. For the same compound, in data set [2], the Papp B→A at 10 µM worked out at 80 ×10⁻⁶ cm/s. For the same compound, the IC50 was less than 1 nM in data set [3] and 1 nM in data set [5]. The solubility at 24 h in data set [4] is more than 88 µg/mL.

For the compound `CN1CCC2=C(C1=O)C(c1ccc(C#N)cc1-c1ccc(=O)n(C)n1)N(C)C(=O)N2c1cccc(C(F)(F)F)c1` (stereo not drawn) [Example 41, 4-{3,6-Dimethyl-2,5-dioxo-1-[3-(trifluoromethyl)phenyl]-1H,2H,3H,4H,5H,6H,7H,8H-pyrido[4,3-d]pyrimidin-4-yl}-3-(1-methyl-6-oxo-1,6-dihydropyridazin-3-yl)-benzonitrile], the half-life at 1 μM in data set [1] is more than 2.17 h. In addition, in data set [2], the Papp A→B at 10 µM came to 6 ×10⁻⁶ cm/s and the Papp B→A at 10 µM was found to be 91 ×10⁻⁶ cm/s. Besides, the concentration in solution in data set [4] (solubility at 24 h) was 93 µg/mL (≈ 170 µM). Further, inhibition in data set [5] was half-maximal at 1 nM (IC50).

With `CN1CCC2=C(C1=O)C(c1ccc(C#N)cc1CO)N(C)C(=O)N2c1cccc(C(F)(F)F)c1` (stereo not drawn) [Example 38, 4-{3,6-Dimethyl-2,5-dioxo-1-[3-(trifluoromethyl)phenyl]-1H,2H,3H,4H,5H,6H,7H,8H-pyrido[4,3-d]pyrimidin-4-yl}-3-(hydroxymethyl)benzonitrile], the Papp A→B at 10 µM in data set [2] was 24 ×10⁻⁶ cm/s. For the same compound, in data set [2], the Papp B→A at 10 µM came to 91 ×10⁻⁶ cm/s. Also, the IC50 in data set [3] was less than 1 nM; in data set [5], 1.4 nM. Moreover, in data set [4], the solubility at 24 h amounted to 89 µg/mL (≈ 189 µM).

For the compound `CN1C(=O)N(c2cccc(C(F)(F)F)c2)C2=C(C(=O)NCC2)C1c1ccc(C#N)cc1` (stereo not drawn) [Example 5, 4-(3-Methyl-2,5-dioxo-1-(3-(trifluoromethyl)phenyl)-1,2,3,4,5,6,7,8-octahydropyrido-[4,3-d]pyrimidin-4-yl)benzonitrile], the half-inhibitory concentration (IC50) in data set [3] was determined as 1.9 nM; in data set [5] it was 1.1 nM.

On to `N#Cc1ccc(C2C3=C(CCNC3=O)N(c3cccc(C(F)(F)F)c3)C(=O)N2CC(=O)N2CC3CC3C2)cc1` (stereo not drawn) [Example 12.5], for which the IC50 in data set [3] and in data set [5] was less than 1 nM each time.

In the case of `CN1CCC2=C(C1=O)C(c1ccc(C#N)cc1C(N)=O)N(C)C(=O)N2c1cccc(C(F)(F)F)c1` (stereo not drawn) [Example 39, 5-Cyano-2-{3,6-dimethyl-2,5-dioxo-1-[3-(trifluoromethyl)phenyl]-1H,2H,3H,4H,5H,6H,7H,8H-pyrido[4,3-d]pyrimidin-4-yl}benzamide], the half-life at 1 μM in data set [1] is more than 2.17 h. For the same compound, in data set [2], the Papp A→B at 10 µM was 4.2 ×10⁻⁶ cm/s and the Papp B→A at 10 µM was 59 ×10⁻⁶ cm/s. This compound displayed an IC50 in data set [3] of less than 1 nM. The compound further registered a solubility at 24 h in data set [4] of 78 µg/mL (≈ 161 µM). This compound yielded a 50% inhibitory concentration (IC50) in data set [5] of less than 1 nM.

Take `N#Cc1ccc(C2C3=C(CCNC3=O)N(c3cccc(C(F)(F)F)c3)C(=O)N2CC(=O)N2CCC(F)C2)cc1` (stereo not drawn) [Example 12.8]: the IC50 in data set [3] is less than 1 nM; in data set [5], 1.1 nM.

In the case of `CN(C)C(=O)CN1C(=O)N(c2cccc(C(F)(F)F)c2)C2=C(C(=O)NCC2)C1c1ccc(C#N)cc1` (stereo not drawn) [Example 12.1], the half-inhibitory concentration (IC50) in data set [3] is 1.1 nM; in data set [5], less than 1 nM.

Regarding `CN(C)C(=O)CN1C(=O)N(c2cccc(C(F)(F)F)c2)C2=C(C(=O)N(C)CC2)C1c1ccc(C#N)cc1` (stereo not drawn) [Example 15.1], the half-inhibitory concentration (IC50) in data set [3] is less than 1 nM; in data set [5] it was 2.6 nM.

With `N#Cc1ccc([C@H]2NC(=O)N(c3cccc(C(F)F)c3)C3=C2C(=O)NCC3)cc1` [Example 2A, (R)-4-(1-(3-(Difluoromethyl)phenyl)-2,5-dioxo-1,2,3,4,5,6,7,8-octahydropyrido[4,3-d]-pyrimidin-4-yl)benzonitrile], the half-life at 1 μM in data set [1] was more than 2.17 h. Also, in data set [2], the Papp A→B at 10 µM came to 4.7 ×10⁻⁶ cm/s and the Papp B→A at 10 µM was found to be 31 ×10⁻⁶ cm/s. In data set [3], this compound gave an IC50 of 3.2 nM. In data set [4], this compound came in with a solubility at 24 h of more than 92 µg/mL. The same compound had an IC50 in data set [5] of 5.4 nM.

On to `N#Cc1ccc(C2C3=C(CCNC3=O)N(c3cccc(C(F)(F)F)c3)C(=O)N2CC(=O)O)cc1` (stereo not drawn) [Example 10, 2-(4-(4-Cyanophenyl)-2,5-dioxo-1-(3-(trifluoromethyl)phenyl)-1,2,5,6,7,8-hexahydropyrido[4,3-d]pyrimidin-3(4H)-yl)acetic acid], for which the half-inhibitory concentration (IC50) in data set [3] is 2.7 nM; in data set [5] it was 2.4 nM.

For `N#Cc1ccc(C2NC(=O)N(c3cccc(C(F)(F)F)c3)C3=C2C(=O)NCC3)c(-c2cnco2)c1` (stereo not drawn) [Example 23, 4-{2,5-Dioxo-1-[3-(trifluoromethyl)phenyl]-1H,2H,3H,4H,5H,6H,7H,8H-pyrido-[4,3-d]pyrimidin-4-yl}-3-(1,3-oxazol-5-yl)benzonitrile], the IC50 in data set [3] is less than 1 nM; in data set [5], 1.1 nM.

As usually defined, the IC50 is the concentration that inhibits the measured activity by half. Read a high IC50 as a need for much substance. By solubility is commonly meant how much of the substance goes into solution per volume.
